Measurements published in patent US20260174860A1, “HYBRID COMPOUNDS OF SCLAREOL AND DOXORUBICIN, THEIR SYNTHESIS AND APPLICATION” (INSTITUTE FOR BIOLOGICAL RESEARCH "SINISA STANKOVIC" - …, priority 2023, published 2026).
Blank lines part the entries; values can stand above or below the compound they belong to.

How the values were obtained:
Assay in all cases: MTT test of cell viability, 72 h treatment
Type in all cases: cell-based
[1] = test system: U87 human glioblastoma cell line; details: for IC50: MTT, 72 h; for Selectivity Index: ratio IC50 MRC-5 (4,000 cells per well) / IC50 U87
Method: (§1) The MTT test was used to evaluate the effect of the compounds on cell viability. The test relies on the reduction of tetrazolium salt (MTT) to formazan, which is catalyzed by the mitochondrial enzyme succinate dehydrogenase. The activity of succinate dehydrogenase, which is indicative of mitochondrial respiration, is taken as an indirect measure of the metabolic activity of the cell, and thus its viability. The MTT-formazan produced is a purple-colored product, whose absorbance is measured at a wavelength of 570 nm. • a) To determine the inhibition of cell growth by SC, different cell lines were exposed to increasing concentrations of SC (5, 10, 25, 50, and 100 μM). The cells were seeded in 96-well microtiter plates at a density of 2,000 cells per well for NCI-H460, NCI-H460/R, DLD1 and DLD1-TxR, and 4,000 cells per well for MRC-5, U87, U87-TxR, and U251 in 100 μL of the appropriate medium. Control cells that received no treatment were also seeded at the same time. After 24 h for adaptation, the cells were treated with various concentrations of SC. After 72 h of treatment, 0.2 mg/ml MTT was added to each well in the appropriate cell culture medium. After 4 h of incubation at 37° C. with 5% CO2, the medium was removed, and 100 μL of DMSO were added to each well, to dissolve the formazan. The absorbance of the samples was measured at 570 nm using a Multiskan Sky Microplate spectrophotometer (ThermoFisher Scientific, USA). The results were analyzed using GraphPad Prism 8.0.2. software, and the IC50 values were determined by non-linear regression. • b) To test the interaction between SC and DOX in terms of cytotoxicity in different cell lines, cells were seeded in 96-well microtiter plates at a density of 2,000 cells per well for NCI-H460, NCI-H460/R, DLD1 and DLD1-TxR, and 4,000 cells per well for MRC-5, U87, U87-TxR, and U251 in 100 μl of the appropriate medium. SC (10 and 20 μM) was combined with increasing concentrations of DOX (20, 50, 100, 200, and 500 nM). The cells were treated with the simultaneous combinations for 72 h. After this period, 0.2 mg/ml MTT was added to each well, followed by 4 hours of incubation at 37° C. with 5% CO2. The medium was then removed, and DMSO was added to each well to dissolve the formazan.
(§2) The analysis was carried out using GraphPad Prism software version 8.0.2 to determine the nature of the interaction, namely synergistic, antagonistic, or additive, between compounds. This was done using the computer software CalcuSyn, which is based on the combination index method. The method takes into account the concentration of compounds, the individual effect of each compound, as well as the effect of two compounds in combination. The values of the combination indices (CI) describe the nature of the interaction: Cl<0.9 indicates synergism, Cl>1.1 indicates antagonism, and Cl=0.9-1.1 indicates an additive effect. • c) To compare the resistance and selectivity profiles among SC, DOX, CON1, and CON2, human glioblastoma cell lines U87, U87-TxR, and MRC-5 were seeded at a density of 4,000 cells per well in 100 μL of the appropriate medium. In contrast, NCI-H460, NCI-H460/R, and MRC-5 were seeded at a density of 2,000 cells per well in 100 μL of the proper medium. The effect of SC derivatives LIG1 and LIG2 was also examined. The range of concentrations differed among the cell lines and the compounds. For LIG1 and LIG2, the range of concentrations for all cell lines was 50, 100, 200, 300, and 400 μM, while the same range was used for the MRC-5 in the case of SC, CON1, and CON2. DOX concentrations ranged 0.1, 0.25, 0.5, 1, and 2.5 μM for U87 and NCI-H460, and 0.25, 0.5, 1, 2.5, and 5 μM for U87-TxR, NCI-H460/R, and MRC-5. […] concentrations used for SC, CON1, and CON2 treatments varied in the range 1, 2.5, 5, 10, 25, 50, and 100 μM. The treatment lasted 72 h. After the treatment period, 0.2 mg/ml MTT in the appropriate cell culture medium was added to each well. […]

[2] = test system: NCI-H460 human non-small cell lung carcinoma cell line; details: for IC50: MTT, 72 h; for Selectivity Index: ratio IC50 MRC-5 (2,000 cells per well) / IC50 NCI-H460
Method: as §1, §2

[3] = test system: NCI-H460/R resistant human non-small cell lung carcinoma cell line; details: for IC50: MTT, 72 h, MDR line; for Relative Resistance: ratio IC50 NCI-H460/R / IC50 NCI-H460
Method: as §1
(§3) The absorbance of the samples was measured at 570 nm using a Multiskan Sky Microplate spectrophotometer.
as §2, with “h.” for “h. After the treatment period, 0.2 mg/ml MTT in the appropriate cell culture medium was added to each well.”

[4] = test system: MRC-5 human lung fibroblast cell line
Method: as §1, §3
as §2, with “h.” for “h. After the treatment period, 0.2 mg/ml MTT in the appropriate cell culture medium was added to each well.”

[5] = test system: U87-TxR resistant human glioblastoma cell line; details: for IC50: MTT, 72 h, MDR line; for Relative Resistance: ratio IC50 U87-TxR / IC50 U87
Method: as §1, §3
as §2, with “h.” for “h. After the treatment period, 0.2 mg/ml MTT in the appropriate cell culture medium was added to each well.”

[6] = Homo sapiens, NCI-H460, DOX only

IC50 ([1]; Homo sapiens, DOX only): 0.1 µM | IC50 [2, 6]: 0.128 µM | IC50 [3, 6]: 2.5 µM | IC50 ([5]; Homo sapiens, U87-TxR, DOX only): 1.32 µM
Compound: COc1cccc2c1C(=O)c1c(O)c3c(c(O)c1C2=O)C[C@@](O)(C(=O)CO)C[C@@H]3O[C@H]1C[C@H](N)[C@H](O)[C@H](C)O1 [DOX, doxorubicin]
Selectivity Index [1]: 2.9 | Selectivity Index [2]: 4.6 | Relative Resistance [3]: 19.6 | IC50 ([4]; Homo sapiens, MRC5, 72 h, 2,000 cells per well (non-small cell carcinoma experiments), DOX only): 0.588 µM | IC50 ([4]; Homo sapiens, MRC5, 72 h, 4,000 cells per well (glioblastoma experiments), DOX only): 0.295 µM | Relative Resistance [5]: 13.2

IC50 ([1]; Homo sapiens): 51.6 µM | IC50 ([2]; Homo sapiens, NCI-H460): 40.3 µM | IC50 ([3]; Homo sapiens, NCI-H460): 47.4 µM | IC50 ([5]; Homo sapiens, U87-TxR): 39.2 µM
Compound: C=C[C@](C)(O)CC[C@@H]1[C@@]2(C)CCCC(C)(C)[C@@H]2CC[C@@]1(C)O [SC, sclareol]
Selectivity Index [1]: 1.5 | Selectivity Index [2]: 1.6 | Relative Resistance [3]: 1.2 | IC50 ([4]; Homo sapiens, MRC5, 72 h, 2,000 cells per well (non-small cell carcinoma experiments)): 64.1 µM | IC50 ([4]; Homo sapiens, MRC5, 72 h, 4,000 cells per well (glioblastoma experiments)): 75.9 µM | Relative Resistance [5]: 0.8

Compound: N1-((25,3S,4S,6R)-3-hydroxy-2-methyl-6-(((1S,3S)-3,5,12-trihydroxy-3-(2-hydroxyacetyl)-10-methoxy-6,11-dioxo-1,2,3,4,6,11-hexahydrotetracen-1-yl)oxy)tetrahydro-2H-pyran-4-yl)-N4-(3-((4-((R,E)-3-hydroxy-5-((1R,2R,4aS,8aS)-2-hydroxy-2,5,5,8a-tetramethyldecahydronaphthalen-1-yl)-3-methylpent-1-en-1-yl)benzyl)amino)propyl) succinamide [CON1]
IC50 [1]: 8.8 µM | Selectivity Index [1]: 15.6 | IC50 [2]: 9.8 µM | Selectivity Index [2]: 7.4 | IC50 [3]: 38.4 µM | Relative Resistance [3]: 3.9 | IC50 ([4]; 2,000 cells per well (non-small cell carcinoma experiments)): 72.6 µM | IC50 ([4]; 4,000 cells per well (glioblastoma experiments)): 137 µM | IC50 [5]: 28.7 µM | Relative Resistance [5]: 3.3
